Assay results reported in the supplement of paper PMC10307832.

How the values were obtained:
Test in all cases: relative viability (nuclei count vs DMSO), 5 days (fraction); higher = more cells survive
[1] = test system: NCI-H441
Outline: (§1)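 Lung cancer cell lines, seeded in 1536-well plates, were treated the following day by pin tool with a single drug or with five library-drug doses (not always all listed) in √10 steps on top of a fixed anchor-drug dose. Cells were fixed and nuclei stained in one step after 5 days, and nuclei were counted. Relative viability is the nuclei count for treated wells divided by that for vehicle wells, reported as medians of duplicate plates.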

[2] = test system: EKVX
Outline: as §1

[3] = test system: NCI-H727
Outline: as §1

[4] = test system: NCI-H460
Outline: as §1

[5] = test system: HCC-366
Outline: as §1

[6] = test system: SW 900
Outline: as §1

[7] = test system: BEN
Outline: as §1

[8] = test system: LK-2
Outline: as §1

[9] = test system: NCI-H3122
Outline: as §1

[10] = test system: CAL-12T
Outline: as §1

[11] = test system: ABC-1
Outline: as §1

[12] = test system: NCI-H1650
Outline: as §1

[13] = test system: NCI-H2170
Outline: as §1

[14] = test system: LOU-NH91
Outline: as §1

[15] = test system: NCI-H1437
Outline: as §1

[16] = test system: NCI-H661
Outline: as §1

[17] = test system: NCI-H1666
Outline: as §1

[18] = test system: PC-14
Outline: as §1

[19] = test system: NCI-H2009
Outline: as §1

[20] = test system: HARA
Outline: as §1

[21] = test system: COR-L 105
Outline: as §1

[22] = test system: 201T
Outline: as §1

**Q.** Which results are given for `Nc1ccn([C@@H]2O[C@H](CO)[C@@H](O)[C@@H]2O)c(=O)n1` [Cytarabine] + Cc1cc(Nc2cc(N3CCN(C)CC3)nc(Sc3ccc(NC(=O)C4CC4)cc3)n2)n[nH]1 [Tozasertib] (partner 0.1 µM)?
**A.** relative viability ([1]; first compound 0.005 µM): 0.557; relative viability ([1]; first compound 0.01581 µM): 0.637; relative viability ([1]; first compound 0.05 µM): 0.597; relative viability ([1]; first compound 0.1581 µM): 0.389; relative viability ([1]; first compound 0.5 µM): 0.323; relative viability ([2]; first compound 0.005 µM): 0.326; relative viability ([2]; first compound 0.01581 µM): 0.35; relative viability ([2]; first compound 0.05 µM): 0.333; relative viability ([2]; first compound 0.1581 µM): 0.272; relative viability ([2]; first compound 0.5 µM): 0.19; relative viability ([3]; first compound 0.005 µM): 0.574; relative viability ([3]; first compound 0.01581 µM): 0.386; relative viability ([3]; first compound 0.05 µM): 0.476; relative viability ([3]; first compound 0.1581 µM): 0.4; relative viability ([3]; first compound 0.5 µM): 0.463; relative viability ([4]; first compound 0.005 µM): 0.438; relative viability ([4]; first compound 0.01581 µM): 0.362; relative viability ([4]; first compound 0.05 µM): 0.196; relative viability ([4]; first compound 0.1581 µM): 0.0434; relative viability ([4]; first compound 0.5 µM): 0.0361; relative viability ([5]; first compound 0.005 µM): 0.149; relative viability ([5]; first compound 0.01581 µM): 0.119; relative viability ([5]; first compound 0.05 µM): 0.0834; relative viability ([5]; first compound 0.1581 µM): 0.0612; relative viability ([5]; first compound 0.5 µM): 0.0652; relative viability ([6]; first compound 0.005 µM): 0.555; relative viability ([6]; first compound 0.01581 µM): 0.402; relative viability ([6]; first compound 0.05 µM): 0.287; relative viability ([6]; first compound 0.1581 µM): 0.233; relative viability ([6]; first compound 0.5 µM): 0.134; relative viability ([7]; first compound 0.005 µM): 0.427; relative viability ([7]; first compound 0.01581 µM): 0.519; relative viability ([7]; first compound 0.05 µM): 0.569; relative viability ([7]; first compound 0.1581 µM): 0.63; relative viability ([7]; first compound 0.5 µM): 0.563; relative viability ([8]; first compound 0.005 µM): 0.213; relative viability ([8]; first compound 0.01581 µM): 0.185; relative viability ([8]; first compound 0.05 µM): 0.168; relative viability ([8]; first compound 0.1581 µM): 0.157; relative viability ([8]; first compound 0.5 µM): 0.215; relative viability ([9]; first compound 0.005 µM): 0.389; relative viability ([9]; first compound 0.01581 µM): 0.407; relative viability ([9]; first compound 0.05 µM): 0.299; relative viability ([9]; first compound 0.1581 µM): 0.237; relative viability ([9]; first compound 0.5 µM): 0.161; relative viability ([10]; first compound 0.005 µM): 0.249; relative viability ([10]; first compound 0.01581 µM): 0.323; relative viability ([10]; first compound 0.05 µM): 0.27; relative viability ([10]; first compound 0.1581 µM): 0.303; relative viability ([10]; first compound 0.5 µM): 0.2; relative viability ([11]; first compound 0.005 µM): 0.209; relative viability ([11]; first compound 0.01581 µM): 0.176; relative viability ([11]; first compound 0.05 µM): 0.174; relative viability ([11]; first compound 0.1581 µM): 0.154; relative viability ([11]; first compound 0.5 µM): 0.183; relative viability ([12]; first compound 0.005 µM): 0.294; relative viability ([12]; first compound 0.01581 µM): 0.33; relative viability ([12]; first compound 0.05 µM): 0.303; relative viability ([12]; first compound 0.1581 µM): 0.26; relative viability ([12]; first compound 0.5 µM): 0.213; relative viability ([13]; first compound 0.005 µM): 0.605; relative viability ([13]; first compound 0.01581 µM): 0.5; relative viability ([13]; first compound 0.05 µM): 0.409; relative viability ([13]; first compound 0.1581 µM): 0.386; relative viability ([13]; first compound 0.5 µM): 0.26; relative viability ([14]; first compound 0.005 µM): 0.555; relative viability ([14]; first compound 0.01581 µM): 0.53; relative viability ([14]; first compound 0.05 µM): 0.672; relative viability ([14]; first compound 0.1581 µM): 0.411; relative viability ([14]; first compound 0.5 µM): 0.514; relative viability ([15]; first compound 0.005 µM): 0.295; relative viability ([15]; first compound 0.01581 µM): 0.355; relative viability ([15]; first compound 0.05 µM): 0.365; relative viability ([15]; first compound 0.1581 µM): 0.251; relative viability ([15]; first compound 0.5 µM): 0.175; relative viability ([16]; first compound 0.005 µM): 0.371; relative viability ([16]; first compound 0.01581 µM): 0.368; relative viability ([16]; first compound 0.05 µM): 0.351; relative viability ([16]; first compound 0.1581 µM): 0.349; relative viability ([16]; first compound 0.5 µM): 0.364; relative viability ([17]; first compound 0.005 µM): 0.559; relative viability ([17]; first compound 0.01581 µM): 0.628; relative viability ([17]; first compound 0.05 µM): 0.469; relative viability ([17]; first compound 0.1581 µM): 0.446; relative viability ([17]; first compound 0.5 µM): 0.423; relative viability ([18]; first compound 0.005 µM): 0.404; relative viability ([18]; first compound 0.01581 µM): 0.448; relative viability ([18]; first compound 0.05 µM): 0.248; relative viability ([18]; first compound 0.1581 µM): 0.157; relative viability ([18]; first compound 0.5 µM): 0.0594; relative viability ([19]; first compound 0.005 µM): 0.685; relative viability ([19]; first compound 0.01581 µM): 0.795; relative viability ([19]; first compound 0.05 µM): 0.786; relative viability ([19]; first compound 0.1581 µM): 0.566; relative viability ([19]; first compound 0.5 µM): 0.308; relative viability ([20]; first compound 0.005 µM): 0.102; relative viability ([20]; first compound 0.01581 µM): 0.102; relative viability ([20]; first compound 0.05 µM): 0.0829; relative viability ([20]; first compound 0.1581 µM): 0.0658; relative viability ([20]; first compound 0.5 µM): 0.0703; relative viability ([21]; first compound 0.005 µM): 0.305; relative viability ([21]; first compound 0.01581 µM): 0.317; relative viability ([21]; first compound 0.05 µM): 0.306; relative viability ([21]; first compound 0.1581 µM): 0.319; relative viability ([21]; first compound 0.5 µM): 0.334; relative viability ([22]; first compound 0.005 µM): 0.886; relative viability ([22]; first compound 0.01581 µM): 0.944; relative viability ([22]; first compound 0.05 µM): 0.911; relative viability ([22]; first compound 0.1581 µM): 0.837; relative viability ([22]; first compound 0.5 µM): 0.706
